Assay results from paper PMC11439681, “The identification of potent dual-target monopolar spindle 1 (MPS1) and histone deacetylase 8 (HDAC8) inhibitors through pharmacophore modeling, molecular docking, molecular dynamics simulations, and biological evaluation” (Frontiers in Pharmacology, 2024).

How the values were obtained:
Test in all cases: In vitro selectivity assay
Assay type in all cases: biochemical
Details in all cases: selectivity panel
ABL1 = biological target: T1, ABL1 (Homo sapiens, UniProt P00519)
T1 construct: ICE Bioscience Inc. (assay service)
Protocol: (§1) The inhibitory effects of compound MPH-5 on a panel of 68 kinases and other histone deacetylases were evaluated to assess the selectivity profile of MPH-5. This experiment was conducted by ICE Bioscience Inc. (Beijing, China).

AXL = biological target: T2, AXL (Homo sapiens, UniProt P30530)
T2 construct: ICE Bioscience Inc. (assay service)
Protocol: as §1

BLK = biological target: T3, BLK (Homo sapiens, UniProt P51451)
T3 construct: ICE Bioscience Inc. (assay service)
Protocol: as §1

BMX = biological target: T4, BMX (Homo sapiens, UniProt P51813)
T4 construct: ICE Bioscience Inc. (assay service)
Protocol: as §1

CDK2 = biological target: T5, CDK2 (Homo sapiens, UniProt P24941)
T5 construct: ICE Bioscience Inc. (assay service)
Protocol: as §1

DDR2 = biological target: T6, DDR2 (Homo sapiens, UniProt Q16832)
T6 construct: ICE Bioscience Inc. (assay service)
Protocol: as §1

EPHA2 = biological target: T7, EPHA2 (Homo sapiens, UniProt P29317)
T7 construct: ICE Bioscience Inc. (assay service)
Protocol: as §1

EPHA6 = biological target: T8, EPHA6 (Homo sapiens, UniProt Q9UF33)
T8 construct: ICE Bioscience Inc. (assay service)
Protocol: as §1

EPHA8 = biological target: T9, EPHA8 (Homo sapiens, UniProt P29322)
T9 construct: ICE Bioscience Inc. (assay service)
Protocol: as §1

EPHB1 = biological target: T10, EPHB1 (Homo sapiens, UniProt P54762)
T10 construct: ICE Bioscience Inc. (assay service)
Protocol: as §1

EPHB2 = biological target: T11, EPHB2 (Homo sapiens, UniProt P29323)
T11 construct: ICE Bioscience Inc. (assay service)
Protocol: as §1

EPHB3 = biological target: T12, EPHB3 (Homo sapiens, UniProt P54753)
T12 construct: ICE Bioscience Inc. (assay service)
Protocol: as §1

FGFR2 = FGFR2 (Homo sapiens, UniProt P21802)
Protocol: as §1

FGFR3 = FGFR3 (Homo sapiens, UniProt P22607)
Protocol: as §1

FGFR4 = FGFR4 (Homo sapiens, UniProt P22455)
Protocol: as §1

FGR = FGR (Homo sapiens, UniProt P09769)
Protocol: as §1

FRK = FRK (Homo sapiens, UniProt P42685)
Protocol: as §1

HCK = HCK (Homo sapiens, UniProt P08631)
Protocol: as §1

HDAC1 = biological target: T13, HDAC1 (Homo sapiens, UniProt Q13547)
T13 construct: ICE Bioscience Inc. (contract assay provider)
Protocol: as §1

HDAC2 = biological target: T14, HDAC2 (Homo sapiens, UniProt Q92769)
T14 construct: ICE Bioscience Inc. (contract assay provider)
Protocol: as §1

HDAC5 = biological target: T15, HDAC5 (Homo sapiens, UniProt Q9UQL6)
T15 construct: ICE Bioscience Inc. (contract assay provider)
Protocol: as §1

HDAC6 = biological target: T16, HDAC6 (Homo sapiens, UniProt Q9UBN7)
T16 construct: ICE Bioscience Inc. (Beijing, China), the contract lab that ran the assay
Protocol: as §1

HDAC7 = biological target: T17, HDAC7 (Homo sapiens, UniProt Q8WUI4)
T17 construct: ICE Bioscience Inc. (Beijing, China), the contract lab that ran the assay
Protocol: as §1

IGF1R = IGF1R (Homo sapiens, UniProt P08069)
Protocol: as §1

INSR = INSR (Homo sapiens, UniProt P06213)
Protocol: as §1

ITK = ITK (Homo sapiens, UniProt Q08881)
Protocol: as §1

JAK1 = JAK1 (Homo sapiens, UniProt P23458)
Protocol: as §1

JAK2 = JAK2 (Homo sapiens, UniProt O60674)
Protocol: as §1

JAK3 = biological target: T18, JAK3 (Homo sapiens, UniProt P52333)
T18 construct: ICE Bioscience Inc. (contract assay provider)
Protocol: as §1

KDR = biological target: T19, KDR (Homo sapiens, UniProt P35968)
T19 construct: ICE Bioscience Inc. (contract assay provider)
Protocol: as §1

KIT = biological target: T20, KIT (Homo sapiens, UniProt P10721)
T20 construct: ICE Bioscience Inc. (contract assay provider)
Protocol: as §1

LTK = biological target: T21, LTK (Homo sapiens, UniProt P29376)
T21 construct: ICE Bioscience Inc. (contract assay provider)
Protocol: as §1

LYN = biological target: T22, LYN (Homo sapiens, UniProt P07948)
T22 construct: ICE Bioscience Inc. (contract assay provider)
Protocol: as §1

NTRK2 = biological target: T23, NTRK2 (Homo sapiens, UniProt Q16620)
T23 construct: ICE Bioscience Inc. (contract assay provider)
Protocol: as §1

NTRK3 = biological target: T24, NTRK3 (Homo sapiens, UniProt Q16288)
T24 construct: ICE Bioscience Inc. (contract assay provider)
Protocol: as §1

PDGFRA = biological target: T25, PDGFRA (Homo sapiens, UniProt P16234)
T25 construct: ICE Bioscience Inc. (contract assay provider)
Protocol: as §1

PIM1 = PIM1 (Homo sapiens, UniProt P11309)
Protocol: as §1

PTK6 = biological target: T26, PTK6 (Homo sapiens, UniProt Q13882)
T26 construct: ICE Bioscience Inc. (contract assay provider)
Protocol: as §1

RAF1 = RAF1 (Homo sapiens, UniProt P04049)
Protocol: as §1

SYK = biological target: T27, SYK (Homo sapiens, UniProt P43405)
T27 construct: ICE Bioscience Inc. (contract assay provider)
Protocol: as §1

TYRO3 = TYRO3 (Homo sapiens, UniProt Q06418)
Protocol: as §1

YES1 = YES1 (Homo sapiens, UniProt P07947)
Protocol: as §1

ZAK = ZAK (Homo sapiens, UniProt Q9NYL2)
Protocol: as §1

Measured: IC50

ITK, sequence (Q08881 whole entry): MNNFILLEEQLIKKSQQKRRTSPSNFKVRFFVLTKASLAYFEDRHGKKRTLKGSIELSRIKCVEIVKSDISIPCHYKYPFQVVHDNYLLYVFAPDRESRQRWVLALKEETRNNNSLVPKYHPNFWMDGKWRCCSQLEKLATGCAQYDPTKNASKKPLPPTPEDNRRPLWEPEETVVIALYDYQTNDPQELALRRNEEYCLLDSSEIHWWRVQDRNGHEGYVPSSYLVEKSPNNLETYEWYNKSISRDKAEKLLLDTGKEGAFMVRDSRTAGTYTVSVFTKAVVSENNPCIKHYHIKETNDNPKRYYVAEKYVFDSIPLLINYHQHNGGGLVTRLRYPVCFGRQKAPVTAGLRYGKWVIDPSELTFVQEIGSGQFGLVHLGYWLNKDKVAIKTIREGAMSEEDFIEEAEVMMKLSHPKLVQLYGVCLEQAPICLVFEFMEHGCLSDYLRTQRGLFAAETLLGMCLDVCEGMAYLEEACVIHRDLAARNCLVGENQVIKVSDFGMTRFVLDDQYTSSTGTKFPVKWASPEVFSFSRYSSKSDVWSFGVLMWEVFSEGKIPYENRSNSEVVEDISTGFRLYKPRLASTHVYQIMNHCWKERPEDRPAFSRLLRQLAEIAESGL
T24 sequence (Q16288 32-839): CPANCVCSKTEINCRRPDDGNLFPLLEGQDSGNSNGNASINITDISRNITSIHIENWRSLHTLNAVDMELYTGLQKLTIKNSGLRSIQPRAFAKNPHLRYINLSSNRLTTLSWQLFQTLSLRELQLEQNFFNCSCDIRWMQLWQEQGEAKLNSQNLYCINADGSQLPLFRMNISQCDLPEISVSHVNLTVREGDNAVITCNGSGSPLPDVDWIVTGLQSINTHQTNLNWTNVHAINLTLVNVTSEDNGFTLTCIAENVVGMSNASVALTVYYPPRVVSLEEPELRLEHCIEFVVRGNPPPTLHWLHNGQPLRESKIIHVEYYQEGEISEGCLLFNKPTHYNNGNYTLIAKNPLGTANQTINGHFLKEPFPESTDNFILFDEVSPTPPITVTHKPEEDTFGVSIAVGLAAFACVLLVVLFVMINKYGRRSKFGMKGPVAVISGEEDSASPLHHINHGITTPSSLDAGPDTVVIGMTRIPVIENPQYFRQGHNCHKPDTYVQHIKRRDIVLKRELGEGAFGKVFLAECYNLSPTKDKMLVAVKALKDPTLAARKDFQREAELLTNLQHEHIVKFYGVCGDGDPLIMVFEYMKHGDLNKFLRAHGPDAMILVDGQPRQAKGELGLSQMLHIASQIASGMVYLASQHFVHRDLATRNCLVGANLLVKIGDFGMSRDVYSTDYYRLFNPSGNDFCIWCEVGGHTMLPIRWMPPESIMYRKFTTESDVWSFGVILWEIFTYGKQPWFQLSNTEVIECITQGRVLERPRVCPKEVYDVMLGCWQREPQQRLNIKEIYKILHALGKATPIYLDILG
FGR, sequence (P09769 whole entry): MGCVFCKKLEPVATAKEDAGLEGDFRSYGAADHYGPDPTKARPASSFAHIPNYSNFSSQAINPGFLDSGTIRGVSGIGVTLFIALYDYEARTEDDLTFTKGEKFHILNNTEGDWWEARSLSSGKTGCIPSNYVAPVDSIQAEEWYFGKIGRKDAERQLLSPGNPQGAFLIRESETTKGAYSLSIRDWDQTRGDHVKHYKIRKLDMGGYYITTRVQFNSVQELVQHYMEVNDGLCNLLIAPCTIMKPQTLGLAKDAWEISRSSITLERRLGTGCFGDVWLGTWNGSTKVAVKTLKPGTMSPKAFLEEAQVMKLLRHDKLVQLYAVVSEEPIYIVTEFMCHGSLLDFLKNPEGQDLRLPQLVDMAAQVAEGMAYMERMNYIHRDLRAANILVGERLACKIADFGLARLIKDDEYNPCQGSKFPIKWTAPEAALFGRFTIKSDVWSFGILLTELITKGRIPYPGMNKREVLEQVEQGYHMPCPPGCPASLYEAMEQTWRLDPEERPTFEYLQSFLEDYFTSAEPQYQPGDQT
T20 sequence (P10721 26-976): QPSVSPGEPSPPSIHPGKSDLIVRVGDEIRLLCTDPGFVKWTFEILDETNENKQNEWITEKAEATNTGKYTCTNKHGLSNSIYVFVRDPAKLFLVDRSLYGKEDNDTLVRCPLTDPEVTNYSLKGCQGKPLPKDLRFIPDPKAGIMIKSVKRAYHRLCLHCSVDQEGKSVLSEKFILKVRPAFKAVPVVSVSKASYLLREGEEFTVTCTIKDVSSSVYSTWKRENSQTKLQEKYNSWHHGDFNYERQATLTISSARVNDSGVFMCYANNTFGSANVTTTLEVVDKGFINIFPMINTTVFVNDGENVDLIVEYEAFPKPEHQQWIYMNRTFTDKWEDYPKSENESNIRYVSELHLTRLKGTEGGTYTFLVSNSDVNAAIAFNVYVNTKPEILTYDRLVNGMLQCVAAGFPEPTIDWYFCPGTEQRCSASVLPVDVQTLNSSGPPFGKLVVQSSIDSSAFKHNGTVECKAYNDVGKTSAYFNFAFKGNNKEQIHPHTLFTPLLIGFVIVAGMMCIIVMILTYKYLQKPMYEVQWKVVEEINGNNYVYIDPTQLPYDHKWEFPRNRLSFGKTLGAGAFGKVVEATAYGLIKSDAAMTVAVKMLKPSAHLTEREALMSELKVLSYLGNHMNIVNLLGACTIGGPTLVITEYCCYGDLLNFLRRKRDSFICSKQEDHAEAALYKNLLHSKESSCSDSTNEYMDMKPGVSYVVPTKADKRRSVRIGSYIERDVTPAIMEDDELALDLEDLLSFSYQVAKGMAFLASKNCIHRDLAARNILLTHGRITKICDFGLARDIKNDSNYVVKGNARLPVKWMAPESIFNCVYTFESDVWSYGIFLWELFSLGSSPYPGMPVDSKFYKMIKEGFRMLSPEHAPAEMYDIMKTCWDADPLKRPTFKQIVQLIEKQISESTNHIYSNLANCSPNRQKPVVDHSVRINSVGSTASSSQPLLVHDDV
FGFR4, sequence (P22455 22-802): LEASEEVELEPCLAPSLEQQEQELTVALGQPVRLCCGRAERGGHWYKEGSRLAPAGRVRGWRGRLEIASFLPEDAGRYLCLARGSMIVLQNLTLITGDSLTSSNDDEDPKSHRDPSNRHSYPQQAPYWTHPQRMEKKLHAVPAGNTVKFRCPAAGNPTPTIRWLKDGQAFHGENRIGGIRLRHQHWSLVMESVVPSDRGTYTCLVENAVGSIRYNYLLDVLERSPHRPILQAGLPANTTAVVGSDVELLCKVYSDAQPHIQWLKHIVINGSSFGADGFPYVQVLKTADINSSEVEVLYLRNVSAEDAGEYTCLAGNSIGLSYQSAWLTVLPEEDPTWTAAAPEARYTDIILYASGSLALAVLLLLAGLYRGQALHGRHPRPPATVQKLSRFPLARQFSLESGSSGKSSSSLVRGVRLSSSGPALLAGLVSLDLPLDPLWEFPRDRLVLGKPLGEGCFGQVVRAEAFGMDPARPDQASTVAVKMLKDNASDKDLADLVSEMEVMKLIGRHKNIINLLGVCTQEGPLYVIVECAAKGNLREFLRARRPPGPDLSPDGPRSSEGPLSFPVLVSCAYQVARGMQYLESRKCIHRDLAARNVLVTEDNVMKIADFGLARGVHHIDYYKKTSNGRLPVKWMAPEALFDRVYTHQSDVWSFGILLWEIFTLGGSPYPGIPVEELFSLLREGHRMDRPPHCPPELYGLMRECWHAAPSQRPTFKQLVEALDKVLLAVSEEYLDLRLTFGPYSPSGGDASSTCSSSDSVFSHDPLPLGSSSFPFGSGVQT
T16 sequence (Q9UBN7 whole entry): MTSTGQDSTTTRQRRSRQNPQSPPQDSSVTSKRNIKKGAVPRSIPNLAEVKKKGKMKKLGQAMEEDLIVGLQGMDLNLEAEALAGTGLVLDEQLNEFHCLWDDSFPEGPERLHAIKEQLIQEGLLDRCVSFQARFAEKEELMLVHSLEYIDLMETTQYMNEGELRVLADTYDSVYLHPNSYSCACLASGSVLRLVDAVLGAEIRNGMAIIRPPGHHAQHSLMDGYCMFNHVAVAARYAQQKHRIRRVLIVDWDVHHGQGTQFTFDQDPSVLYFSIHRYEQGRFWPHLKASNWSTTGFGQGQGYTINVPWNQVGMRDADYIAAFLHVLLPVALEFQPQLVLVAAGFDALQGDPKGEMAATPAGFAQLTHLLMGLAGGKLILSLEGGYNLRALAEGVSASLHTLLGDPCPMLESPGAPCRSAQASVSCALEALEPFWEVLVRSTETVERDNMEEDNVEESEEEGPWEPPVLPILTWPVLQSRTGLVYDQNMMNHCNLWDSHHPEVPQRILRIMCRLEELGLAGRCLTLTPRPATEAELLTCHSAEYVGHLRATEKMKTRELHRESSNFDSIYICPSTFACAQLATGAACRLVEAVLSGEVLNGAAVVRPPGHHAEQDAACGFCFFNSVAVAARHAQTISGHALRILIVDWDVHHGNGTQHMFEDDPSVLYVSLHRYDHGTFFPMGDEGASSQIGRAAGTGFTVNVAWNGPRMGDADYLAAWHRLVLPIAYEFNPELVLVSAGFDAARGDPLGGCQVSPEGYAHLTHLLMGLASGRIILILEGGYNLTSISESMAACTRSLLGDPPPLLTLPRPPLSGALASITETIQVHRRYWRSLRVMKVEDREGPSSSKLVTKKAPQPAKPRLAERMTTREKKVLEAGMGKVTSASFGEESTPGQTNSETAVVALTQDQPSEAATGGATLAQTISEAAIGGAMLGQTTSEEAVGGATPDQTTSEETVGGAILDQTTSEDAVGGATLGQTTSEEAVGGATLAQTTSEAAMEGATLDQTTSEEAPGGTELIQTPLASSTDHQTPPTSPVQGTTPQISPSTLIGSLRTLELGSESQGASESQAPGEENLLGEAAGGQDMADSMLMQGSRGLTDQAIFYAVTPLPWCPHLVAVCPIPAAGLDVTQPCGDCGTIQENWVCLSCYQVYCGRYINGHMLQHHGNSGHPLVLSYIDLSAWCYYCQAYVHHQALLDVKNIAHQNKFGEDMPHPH

Cn1cc(-c2cc3cnc(Nc4ccc(-c5cncn5/C=C/C(=O)NO)cc4Cl)cc3n2C(=O)OC(C)(C)C)cn1 [MPH-5]
> 10 µM: ABL1 | AXL | BLK | BMX | CDK2 | DDR2 | EPHA2 | EPHA6 | EPHA8 | EPHB1 | EPHB2 | EPHB3 | FGFR2 | FGFR3 | FGFR4 | FGR | FRK | HCK | HDAC1 | HDAC2 | HDAC5 | HDAC6 | HDAC7 | IGF1R | INSR | ITK | JAK1 | JAK2 | JAK3 | KDR | KIT | LTK | LYN | NTRK2 | NTRK3 | PDGFRA | PIM1 | PTK6 | RAF1 | SYK | TYRO3 | YES1 | ZAK
